# Results taken from patent publication US11179397B2, “Imidazopyrimidine derivatives” (Gilead Sciences, Inc., priority 2018, dated 2021).
# Like-named read-outs stand apart in the source and are kept apart here.
# Experiments:
# [1] = biological target: SHP-2 full length protein (Homo sapiens (Human), UniProt Q06124); test: SHP-2 biochemical DiFMUP pseudosubstrate-fluorogenic assay; details: 0.2 nM SHP-2, 1 μM IRS-1 activator peptide, 50 μM DiFMUP; read-out: SHP2 IC50
# Procedure: SHP-2 Biochemical Assay Materials Recombinant SHP-2 full length protein was generated in house. SHP-2 protein tyrosine phosphatase (PTP) domain protein (Catalog number SPR0217-20 ug), NaCl (Catalog number S6546-1L), and KCl (Catalog number 60142-500 mL) were purchased from Sigma-Aldrich (St. Louis, Mo.). IRS-1_[…](dPEG8)[…] peptide […]) was custom made by AnaSpec (Fremont, Calif.). DiFMUP substrate (Catalog number D6567), EDTA (Catalog number E177-500 mL), DTT (Catalog number P2325), and 384-well black polystyrene non-binding surface (Catalog number 3820) were purchased from Fisher Scientific (Hanover Park, Ill.). HEPES (Catalog number 15630-080) was purchased from Life Technologies (Pleasanton, Calif.), and Tween-20 (Catalog number 95059-250) was purchased from VWR (Radnor, Pa.). Method Inhibition of SHP-2 activity by small molecule inhibitors was monitored by a biochemical DiFMUP pseudosubstrate-fluorogenic assay. […] The reaction mix was added to the 384-well non-binding plate which had been pre-spotted with 1:3 serial diluted compounds from 10,000-0.005 nM, and incubated at room temperature for 90 min. DiFMUP substrate at final concentration of 50 μM was then added to the wells and incubated for additional 30 min at room temperature. The final reaction volume was 20 μl/well. […] The inhibitor dose response curves were generated using normalized IC50 regression curve fitting by in house dose response analysis tools. The wells with DMSO vehicle were used as controls (100% signal). The percent (%) control of SHP-2 compound was calculated as: (Compound well fluorescence counts/DMSO fluorescence counts)×100%.
# NCI-H358 cells = test: NCI-H358 3D tumor spheroid growth inhibition; format: cell-based; details: 3D spheroids, 7 days, 3D CellTiter Glo, cellular IC50 designated EC50, read-out: H358 EC50
# Excerpt: SHP-2 Cell Based Assay: […] Materials NCI-H358 cell line was purchased from [NT] number ATCC CRL-5807) (Manassas, Va.). RPMI-1640 (Catalog number 10-040-CM) was from Corning Cellgro (Manassas, Va.), Fetal Bovine Serum (FBS) (Catalog number SH30071.03) was from HyClone (Logan, Utanh), and 100× Penicillin/Streptomycin/L-Glutamine stock (Catalog no. 30-009-CI) and 384-well ULA plates (Catalog number 3830) were from Corning (Fremont, Calif.). Method […] At the day of assay, the cells were trypsinized and seeded at 1000 cells/70 μl/well in 384-well ULA plates and incubated at 37° C. incubator with 5% CO2 to allow spheroids to form. […] The plates were incubated for additional 7 days. Then 35 μl of medium from each well was removed, and replaced with 35 μl of 3D CellTiter Glo reagent from Promega. The wells were mixed by pipetting up and down with Biomek FX for 15 times to induce cell lysis and the plates were incubated at room temperature for additional 10 min to stabilize luminescent signal. The luminescence was then read by Envision. The inhibitor dose response curves were generated using normalized cellular IC50 (designated as EC50 in all FIGURES to distinguish from biochemical IC50s) by in house dose response analyses tools. The wells with DMSO vehicle were used as negative controls (0% inhibition). The % inhibition of SHP-2 compounds was calculated as: 100-[(Compound well luminescence counts/DMSO luminescence counts)×100%].
IC50 [1] [nM],EC50 (NCI-H358 cells) [nM],"EC50 (NCI-H358 cells; Homo sapiens, NCI-H358, 168 h) [nM]",SMILES
95,,1500,"Cc1nc(N2CCC3(CCC[C@H]3N)CC2)n2ccnc2c1-c1ccc(Cl)c(Cl)c1 [Example 25, (R)-8-(8-(3,4-dichlorophenyl)-7-methylimidazo[1,2-c]pyrimidin-5-yl)-8-azaspiro[4.5]decan-1-amine]"
25,,360,"Cc1nc(N2CCC3(CCC[C@H]3N)CC2)n2ccnc2c1-c1ccc(Cl)cc1Cl [Example 26, (R)-8-(8-(2,4-dichlorophenyl)-7-methylimidazo[1,2-c]pyrimidin-5-yl)-8-azaspiro[4.5]decan-1-amine]"
74,,380,"Cc1nc(N2CCC3(CCC[C@H]3N)CC2)n2ccnc2c1-c1ccnc(F)c1Cl [Example 28, (R)-8-(8-(3-chloro-2-fluoropyridin-4-yl)-7-methylimidazo[1,2-c]pyrimidin-5-yl)-8-azaspiro[4.5]decan-1-amine]"
1300,,5500,"Cc1nc(N2CCC3(CCC[C@H]3N)CC2)n2ccnc2c1-c1ccnc(N)c1Cl [Example 29, (R)-8-(8-(2-amino-3-chloropyridin-4-yl)-7-methylimidazo[1,2-c]pyrimidin-5-yl)-8-azaspiro[4.5]decan-1-amine]"
5,,53,"C[C@@H]1OCC2(CCN(c3ncc(Sc4ccnc(N)c4Cl)c4nccn34)CC2)[C@@H]1N [Example 31, (3S,4S)-8-(8-((2-amino-3-chloropyridin-4-yl)thio)imidazo[1,2-c]pyrimidin-5-yl)-3-methyl-2-oxa-8-azaspiro[4.5]decan-4-amine]"
3.1,,32,"Cc1nc(N2CCC3(CC2)C[C@@H](O)C[C@H]3N)n2ccnc2c1-c1cccc(Cl)c1Cl [Example 33, (2R,4R)-4-amino-8-(8-(2,3-dichlorophenyl)-7-methylimidazo[1,2-c]pyrimidin-5-yl)-8-azaspiro[4.5]decan-2-ol]"
190,,3200,"NC1CC2CN(c3ncc(Sc4cccc(Cl)c4Cl)c4nccn34)CC2C1 (centres unmarked) [Example 40, 2-(8-((2,3-dichlorophenyl)thio)imidazo[1,2-c]pyrimidin-5-yl)octahydrocyclopenta[c]pyrrol-5-amine]"
150,,3200,"NCC1CC2CN(c3ncc(Sc4cccc(Cl)c4Cl)c4nccn34)CC2C1 (centres unmarked) [Example 41, (2-(8-((2,3-dichlorophenyl)thio)imidazo[1,2-c]pyrimidin-5-yl)octahydrocyclopenta[c]pyrrol-5-yl)methanamine]"
80,,1300,"NC[C@H]1[C@H]2CN(c3ncc(Sc4cccc(Cl)c4Cl)c4nccn34)C[C@@H]12 [Example 42, ((1R,5S,6r)-3-(8-((2,3-dichlorophenyl)thio)imidazo[1,2-c]pyrimidin-5-yl)-3-azabicyclo[3.1.0]hexan-6-yl)methanamine]"
2.8,,130,"N[C@@H]1CCCC12CCN(c1ncc(Sc3cccc(Cl)c3Cl)c3nccn13)CC2 [Example 44, (R)-8-(8-((2,3-dichlorophenyl)thio)imidazo[1,2-c]pyrimidin-5-yl)-8-azaspiro[4.5]decan-1-amine]"
,,21,"Cc1nc(N2CCC3(CC2)Cc2cc(F)ccc2[C@H]3N)n2ccnc2c1-c1cccc(Cl)c1Cl [Example 133, (S)-1′-(8-(2,3-dichlorophenyl)-7-methylimidazo[1,2-c]pyrimidin-5-yl)-5-fluoro-1,3-dihydrospiro[indene-2,4′-piperidin]-1-amine]"

# The next lines start with the compound.
SMILES,IC50 [1] [nM],EC50 (NCI-H358 cells) [nM],"EC50 (NCI-H358 cells; Homo sapiens, NCI-H358, 168 h) [nM]"
"Cc1nc(N2CCC3(CCC[C@H]3N)CC2)n2ccnc2c1-c1cccc(Cl)c1Cl (single isomer, unassigned) [Example 10]",52,970,
"Cc1nc(N2CCC3(CCC[C@H]3N)CC2)n2ccnc2c1-c1cccc(Cl)c1Cl (single isomer, unassigned) [Example 11]",3.6,60,
"Cc1nc(N2CCC3(CC2)CO[C@@H](C)[C@H]3N)n2ccnc2c1-c1cccc(Cl)c1Cl [Example 1, (3S,4S)-8-(8-(2,3-dichlorophenyl)-7-methylimidazo[1,2-c]pyrimidin-5-yl)-3-methyl-2-oxa-8-azaspiro[4.5]decan-4-amine]",2.8,,59
"Cc1nc(N2CCC3(CCC[C@H]3N)CC2)n2ccnc2c1-c1cccc2[nH]ccc12 [Example 2, (R)-8-(8-(1H-indol-4-yl)-7-methylimidazo[1,2-c]pyrimidin-5-yl)-8-azaspiro[4.5]decan-1-amine]",47,,590
"Cc1nc(N2CCC3(CCC[C@H]3N)CC2)n2ccnc2c1-c1ccccc1 [Example 5, (R)-8-(7-methyl-8-phenylimidazo[1,2-c]pyrimidin-5-yl)-8-azaspiro[4.5]decan-1-amine]",90,,670
"Cc1nc(N2CCC3(CCC[C@H]3N)CC2)n2ccnc2c1-c1cccc(C(F)(F)F)c1 [Example 7, (R)-8-(7-methyl-8-(3-(trifluoromethyl)phenyl)imidazo[1,2-c]pyrimidin-5-yl)-8-azaspiro[4.5]decan-1-amine]",1300,,> 12500
"Cc1nc(N2CCC3(CCC[C@H]3N)CC2)n2ccnc2c1-c1cccc(Cl)c1Cl [Example 9, (R)-8-(8-(2,3-dichlorophenyl)-7-methylimidazo[1,2-c]pyrimidin-5-yl)-8-azaspiro[4.5]decan-1-amine]",4.1,,120
"Cc1nc(N2CCC3(CCC[C@H]3N)CC2)n2ccnc2c1-c1sccc1Cl [Example 12, (R)-8-(8-(3-chlorothiophen-2-yl)-7-methylimidazo[1,2-c]pyrimidin-5-yl)-8-azaspiro[4.5]decan-1-amine]",90,,420
"Cc1nc(N2CCC3(CCC[C@H]3N)CC2)n2ccnc2c1-c1cnn(C)c1C [Example 13, (R)-8-(8-(1,5-dimethyl-1H-pyrazol-4-yl)-7-methylimidazo[1,2-c]pyrimidin-5-yl)-8-azaspiro[4.5]decan-1-amine]",1000,,3300
"Cc1nc(N2CCC3(CCC[C@H]3N)CC2)n2ccnc2c1-c1cnc2ccccn12 [Example 15, (R)-8-(8-(imidazo[1,2-a]pyridin-3-yl)-7-methylimidazo[1,2-c]pyrimidin-5-yl)-8-azaspiro[4.5]decan-1-amine]",350,,3200
"Cc1nc(N2CCC3(CCC[C@H]3N)CC2)n2ccnc2c1Sc1ccnc(N)c1Cl [Example 18, (R)-8-(8-((2-amino-3-chloropyridin-4-yl)thio)-7-methylimidazo[1,2-c]pyrimidin-5-yl)-8-azaspiro[4.5]decan-1-amine]",5.6,,75
"Cc1nc(N2CCC3(CCC[C@H]3N)CC2)n2ccnc2c1-c1cccc(Cl)c1 [Example 23, (R)-8-(8-(3-chlorophenyl)-7-methylimidazo[1,2-c]pyrimidin-5-yl)-8-azaspiro[4.5]decan-1-amine]",160,,1500
"N[C@@H]1C[C@H](O)CC12CCN(c1ncc(Sc3cccc(Cl)c3Cl)c3nccn13)CC2 [Example 35, (2R,4R)-4-amino-8-(8-((2,3-dichlorophenyl)thio)imidazo[1,2-c]pyrimidin-5-yl)-8-azaspiro[4.5]decan-2-ol]",1.2,,32
"C[C@@H]1OCC2(CCN(c3ncc(Sc4cc(N)ncc4C(F)(F)F)c4nccn34)CC2)[C@@H]1N [Example 38, (3S,4S)-8-(8-((2-amino-5-(trifluoromethyl)pyridin-4-yl)thio)imidazo[1,2-c]pyrimidin-5-yl)-3-methyl-2-oxa-8-azaspiro[4.5]decan-4-amine]",5.9,,59
"Nc1cccc(Sc2cnc(N3CCC4(CC3)Cc3ccccc3[C@H]4N)n3ccnc23)c1Cl [Example 137, (S)-1′-(8-((3-amino-2-chlorophenyl)thio)imidazo[1,2-c]pyrimidin-5-yl)-1,3-dihydrospiro[indene-2,4′-piperidin]-1-amine]",,,12
